Assay results as given in PubChem BioAssay AID248 (DTP/NCI, 2004).
Several values for one entry are separate records, joined by “and”; a condition that tells them apart may be missing. Equal values may be shown once. Toxic doses and inconclusive results are not listed.

Tested on: L1210 leukemia ip in BDF1 mice, survival T/C
Experiment: NCI In Vivo Anticancer Drug Screen. Data for tumor model L1210 Leukemia (intraperitoneal) in B6D2F1 (BDF1) mice
Details: endpoint: mean survival time, higher = longer survival
Method in brief: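 Tumor was transplanted into mice, which were then dosed with test compound or vehicle alone. Survival was recorded for each group, and the treated figure was expressed relative to the control figure.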

Question: For `CC(=O)NC1=C(N2CC2)C(=O)C(NC(C)=O)=C(N2CC2)C1=O`, which T/C (dose: 0.01 mg/kg/injection, schedule: Q01DX Z (ip), vehicle: alkali diluted with saline) is on record?
Answer: 96 % of control

Question: And the T/C (dose: 0.03 mg/kg/injection, schedule: Q01DX Z (ip), vehicle: alkali diluted with saline)?
Answer: 96 % of control

Question: What about the T/C (dose: 0.06 mg/kg/injection, schedule: Q01DX006 (iv), vehicle: saline) of the same molecule?
Answer: 113 % of control

Question: And the T/C (dose: 0.06 mg/kg/injection, schedule: Q01DX Z (ip), vehicle: alkali diluted with saline)?
Answer: 97 % of control and 105 % of control

Question: And the T/C (dose: 0.06 mg/kg/injection, schedule: Q01DX Z (ip), vehicle: saline)?
Answer: 113 % of control

Question: And the T/C (dose: 0.12 mg/kg/injection, schedule: Q01DX Z (ip), vehicle: alkali diluted with saline)?
Answer: 100 % of control and 102 % of control

Question: And the T/C (dose: 0.12 mg/kg/injection, schedule: Q01DX Z (oral), vehicle: carboxymethylcellulose (CMC))?
Answer: 97 % of control

Question: And the T/C (dose: 0.13 mg/kg/injection, schedule: Q01DX006 (iv), vehicle: saline)?
Answer: 118 % of control

Question: What about the T/C (dose: 0.24 mg/kg/injection, schedule: Q01DX Z (ip), vehicle: alkali diluted with saline) of the same molecule?
Answer: 109 % of control

Question: What about the T/C (dose: 0.25 mg/kg/injection, schedule: Q01DX006 (iv), vehicle: saline) of the same molecule?
Answer: 108 % of control

Question: And the T/C (dose: 0.25 mg/kg/injection, schedule: Q01DX Z (im), vehicle: saline)?
Answer: 121 % of control

Question: What about the T/C (dose: 0.25 mg/kg/injection, schedule: Q01DX Z (ip), vehicle: saline) of the same molecule?
Answer: 159 % of control

Question: And the T/C (dose: 0.25 mg/kg/injection, schedule: Q01DX Z (oral), vehicle: carboxymethylcellulose (CMC))?
Answer: 101 % of control

Question: And the T/C (dose: 0.25 mg/kg/injection, schedule: Q01DX Z (sc), vehicle: saline)?
Answer: 102 % of control

Question: What about the T/C (dose: 0.38 mg/kg/injection, schedule: Q03DX005 (oral), vehicle: saline) of the same molecule?
Answer: 111 % of control

Question: And the T/C (dose: 0.38 mg/kg/injection, schedule: Q03DX006 (oral), vehicle: saline)?
Answer: 106 % of control

Question: And the T/C (dose: 0.48 mg/kg/injection, schedule: Q01DX Z (ip), vehicle: alkali diluted with saline)?
Answer: 97 % of control

Question: And the T/C (dose: 0.5 mg/kg/injection, schedule: Q01DX Z (ip), vehicle: saline)?
Answer: 185 % of control and 201 % of control

Question: And the T/C (dose: 0.5 mg/kg/injection, schedule: Q01DX Z (oral), vehicle: carboxymethylcellulose (CMC))?
Answer: 100 % of control

Question: What about the T/C (dose: 0.75 mg/kg/injection, schedule: Q03DX005 (oral), vehicle: saline) of the same molecule?
Answer: 111 % of control

Question: What about the T/C (dose: 0.75 mg/kg/injection, schedule: Q03DX006 (oral), vehicle: saline) of the same molecule?
Answer: 109 % of control

Question: And the T/C (dose: 0.9 mg/kg/injection, schedule: Q01DX001 (oral), vehicle: saline)?
Answer: 103 % of control and 104 % of control and 108 % of control

Question: And the T/C (dose: 0.9 mg/kg/injection, schedule: Q07DX002 (oral), vehicle: saline)?
Answer: 108 % of control

Question: What about the T/C (dose: 0.9 mg/kg/injection, schedule: Q07DX003 (oral), vehicle: saline) of the same molecule?
Answer: 101 % of control

Question: And the T/C (dose: 0.96 mg/kg/injection, schedule: Q01DX Z (ip), vehicle: alkali diluted with saline)?
Answer: 103 % of control

Question: What about the T/C (dose: 0.96 mg/kg/injection, schedule: Q01DX Z (ip), vehicle: other) of the same molecule?
Answer: 194 % of control

Question: What about the T/C (dose: 1.0 mg/kg/injection, schedule: Q01DX006 (iv), vehicle: saline) of the same molecule?
Answer: 170 % of control

Question: What about the T/C (dose: 1.0 mg/kg/injection, schedule: Q01DX Z (ip), vehicle: carboxymethylcellulose (CMC)) of the same molecule?
Answer: 155 % of control

Question: And the T/C (dose: 1.0 mg/kg/injection, schedule: Q01DX Z (ip), vehicle: saline)?
Answer: 164 % of control and 220 % of control

Question: And the T/C (dose: 1.0 mg/kg/injection, schedule: Q01DX Z (oral), vehicle: carboxymethylcellulose (CMC))?
Answer: 109 % of control

Question: What about the T/C (dose: 1.0 mg/kg/injection, schedule: Q01DX Z (oral), vehicle: saline) of the same molecule?
Answer: 121 % of control

Question: What about the T/C (dose: 1.0 mg/kg/injection, schedule: Q01DX Z (sc), vehicle: saline) of the same molecule?
Answer: 161 % of control

Question: And the T/C (dose: 1.0 mg/kg/injection, schedule: Q#A X Z (oral), vehicle: saline)?
Answer: 115 % of control

Question: And the T/C (dose: 1.25 mg/kg/injection, schedule: Q01DX Z (ip), vehicle: carboxymethylcellulose (CMC))?
Answer: 164 % of control

Question: And the T/C (dose: 1.5 mg/kg/injection, schedule: Q01DX Z (ip), vehicle: saline)?
Answer: 163 % of control

Question: What about the T/C (dose: 1.5 mg/kg/injection, schedule: Q03DX005 (oral), vehicle: saline) of the same molecule?
Answer: 108 % of control

Question: And the T/C (dose: 1.5 mg/kg/injection, schedule: Q03DX006 (oral), vehicle: saline)?
Answer: 124 % of control and 91 % of control

Question: And the T/C (dose: 1.75 mg/kg/injection, schedule: Q01DX001 (oral), vehicle: saline)?
Answer: 104 % of control and 111 % of control and 117 % of control

Question: And the T/C (dose: 1.75 mg/kg/injection, schedule: Q07DX002 (oral), vehicle: saline)?
Answer: 108 % of control

Question: And the T/C (dose: 1.75 mg/kg/injection, schedule: Q07DX003 (oral), vehicle: saline)?
Answer: 117 % of control

Question: What about the T/C (dose: 1.9 mg/kg/injection, schedule: Q01DX Z (ip), vehicle: alkali diluted with saline) of the same molecule?
Answer: 101 % of control

Question: And the T/C (dose: 1.9 mg/kg/injection, schedule: Q01DX Z (ip), vehicle: other)?
Answer: 122 % of control

Question: What about the T/C (dose: 2.0 mg/kg/injection, schedule: Q01DX006 (iv), vehicle: saline) of the same molecule?
Answer: 168 % of control and 174 % of control

Question: And the T/C (dose: 2.0 mg/kg/injection, schedule: Q01DX Z (im), vehicle: saline)?
Answer: 113 % of control

Question: What about the T/C (dose: 2.0 mg/kg/injection, schedule: Q01DX Z (ip), vehicle: saline) of the same molecule?
Answer: 116 % of control and 117 % of control

Question: And the T/C (dose: 2.0 mg/kg/injection, schedule: Q01DX Z (oral), vehicle: saline)?
Answer: 118 % of control

Question: And the T/C (dose: 2.2 mg/kg/injection, schedule: Q01DX Z (ip), vehicle: carboxymethylcellulose (CMC))?
Answer: 103 % of control and 114 % of control

Question: And the T/C (dose: 2.5 mg/kg/injection, schedule: Q01DX Z (ip), vehicle: carboxymethylcellulose (CMC))?
Answer: 117 % of control

Question: And the T/C (dose: 3.0 mg/kg/injection, schedule: Q01DX Z (ip), vehicle: saline)?
Answer: 106 % of control

Question: What about the T/C (dose: 3.0 mg/kg/injection, schedule: Q03DX006 (oral), vehicle: saline) of the same molecule?
Answer: 94 % of control and 114 % of control

Question: What about the T/C (dose: 3.3 mg/kg/injection, schedule: Q01DX Z (ip), vehicle: carboxymethylcellulose (CMC)) of the same molecule?
Answer: 101 % of control and 90 % of control

Question: And the T/C (dose: 3.5 mg/kg/injection, schedule: Q01DX001 (oral), vehicle: saline)?
Answer: 101 % of control and 105 % of control and 106 % of control

Question: And the T/C (dose: 3.5 mg/kg/injection, schedule: Q07DX002 (oral), vehicle: saline)?
Answer: 97 % of control

Question: What about the T/C (dose: 3.5 mg/kg/injection, schedule: Q07DX003 (oral), vehicle: saline) of the same molecule?
Answer: 109 % of control

Question: What about the T/C (dose: 4.0 mg/kg/injection, schedule: Q01DX006 (iv), vehicle: saline) of the same molecule?
Answer: 88 % of control

Question: What about the T/C (dose: 4.0 mg/kg/injection, schedule: Q01DX Z (sc), vehicle: saline) of the same molecule?
Answer: 96 % of control

Question: What about the T/C (dose: 4.9 mg/kg/injection, schedule: Q01DX Z (ip), vehicle: carboxymethylcellulose (CMC)) of the same molecule?
Answer: 90 % of control

Question: What about the T/C (dose: 6.0 mg/kg/injection, schedule: Q03DX005 (oral), vehicle: saline) of the same molecule?
Answer: 103 % of control

Question: What about the T/C (dose: 6.0 mg/kg/injection, schedule: Q03DX006 (oral), vehicle: saline) of the same molecule?
Answer: 124 % of control

Question: And the T/C (dose: 7.0 mg/kg/injection, schedule: Q01DX001 (oral), vehicle: saline)?
Answer: 106 % of control and 120 % of control

Question: And the T/C (dose: 7.0 mg/kg/injection, schedule: Q07DX003 (oral), vehicle: saline)?
Answer: 117 % of control

Question: What about the T/C (dose: 8.0 mg/kg/injection, schedule: Q01DX Z (oral), vehicle: saline) of the same molecule?
Answer: 156 % of control and 175 % of control

Question: And the T/C (dose: 8.0 mg/kg/injection, schedule: Q#A X Z (oral), vehicle: saline)?
Answer: 152 % of control

Question: And the T/C (dose: 16.0 mg/kg/injection, schedule: Q01DX Z (oral), vehicle: saline)?
Answer: 122 % of control

Question: And the T/C (dose: 28.0 mg/kg/injection, schedule: Q07DX003 (oral), vehicle: saline)?
Answer: 153 % of control

Question: And the T/C (dose: 32.0 mg/kg/injection, schedule: Q01DX Z (oral), vehicle: saline)?
Answer: 95 % of control

Question: And the T/C (dose: 112.0 mg/kg/injection, schedule: Q07DX003 (oral), vehicle: saline)?
Answer: 111 % of control

Question: And the T/C (dose: 224.0 mg/kg/injection, schedule: Q01DX001 (oral), vehicle: saline)?
Answer: 120 % of control

Question: And the T/C (dose: 448.0 mg/kg/injection, schedule: Q01DX001 (oral), vehicle: saline)?
Answer: 108 % of control

Question: What about the T/C (dose: 600.0 mg/kg/injection, schedule: Q01DX001 (oral), vehicle: saline) of the same molecule?
Answer: 107 % of control

Question: What about the T/C (dose: 800.0 mg/kg/injection, schedule: Q01DX001 (oral), vehicle: saline) of the same molecule?
Answer: 113 % of control

Question: And the T/C (dose: 1000.0 mg/kg/injection, schedule: Q01DX001 (oral), vehicle: saline)?
Answer: 110 % of control
